How the values were obtained:
[1] = tested on: patients with refractory CRS; experiment: Part I prospective study, Rhinotopic therapy spray: Lund-Kennedy scores, clinical course, side effects; assay type: in vivo
From the text: The first part is a prospective study that includes 20 patients with refractory CRS, treated in with Rhinotopic therapy spray at a tertiary rhinology fellowship-training program. The patients were placed on the rhinotopic protocol only after they failed extended standard medical therapy. The latter is defined, for the purpose of this study, as three or more repeated courses of different oral antibiotics along with nasal corticosteroids sprays and nasal saline rinses (each lasting at least 3 weeks), within a 6 month-period, along with oral corticosteroids when indicated (in case of significant polyposis or Samter's triad). Patients who failed extended medical therapy were given the option of revision sinus surgery or rhinotopic therapy; all 20 patients chose rhinotopic therapy and were consented accordingly. […]
CT scans were reviewed prior to treatment and evaluated following the Lund-Mackay radiologic scoring system (9). Clinical response to treatment was monitored using the Lund-Kennedy (LK) symptoms score and the LK endoscopic appearance score (9). […] The LK symptoms score evaluated nasal congestion and obstruction, headache, facial pain, alteration I the sense of smell, nasal discharge, and sneezing. The LK endoscopic appearance score evaluated the presence or absence of nasal polyps, edema, discharge, scarring, and crusting on each side of the nasal cavity. […]

[2] = prolonged intravenous use; cited from earlier work

CN[C@H](CC(C)C)C(=O)N[C@H]1C(=O)N[C@@H](CC(N)=O)C(=O)N[C@H]2C(=O)N[C@H]3C(=O)N[C@H](C(=O)N[C@H](C(=O)O)c4cc(O)cc(O)c4-c4cc3ccc4O)[C@H](O)c3ccc(c(Cl)c3)Oc3cc2cc(c3O[C@@H]2O[C@H](CO)[C@@H](O)[C@H](O)[C@H]2O[C@H]2C[C@](C)(N)[C@H](O)[C@H](C)O2)Oc2ccc(cc2Cl)[C@H]1O [Vancomycin]
patients who developed an allergic reaction (skin rash over the upper lip) ([1]; nebulized, stopped the treatment and dropped out): One
side effects [2]: toxicity to the kidneys and the inner ear

CC(C)(O/N=C(\C(=O)N[C@@H]1C(=O)N2C(C(=O)[O-])=C(C[n+]3ccccc3)CS[C@H]12)c1csc(N)n1)C(=O)O [ceftazidine]
clinical response ([1]; intravenous, one patient, before the rhinotopic protocol): improved transiently but their symptoms recurred

— patent US20140336463A1, “Rhinotopic therapy for the treatment of chronic rhinosinusitis biofilm disruption, treatment of mucosal granulation and sinus polyps” (priority 2009, published 2014)
